Experimental data taken from PubChem BioAssay (NCI).
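Five compound concentrations were applied to cells in 96-well plates for 48 hours; endpoints were derived by simple linear interpolation of the resulting dose-response curve. GI50 marks 50% less growth. TGI marks complete inhibition of growth.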

How the values were obtained:
Test in all cases: NCI anticancer screen, dose series, 48 h
786-0 renal = test system: 786-0 renal
A498 renal = test system: A498 renal
A549 NSCLC = test system: A549 NSCLC
ACHN renal = test system: ACHN renal
CCRF-CEM leukemia = test system: CCRF-CEM leukemia
COLO 205 colon = test system: COLO 205 colon
DLD-1 colon = test system: DLD-1 colon
DMS 273 small cell lung = test system: DMS 273 small cell lung
EKVX NSCLC = test system: EKVX NSCLC
HCC-2998 colon = test system: HCC-2998 colon
HCT-116 colon = test system: HCT-116 colon
HCT-15 colon = test system: HCT-15 colon
HL-60(TB) leukemia = test system: HL-60(TB) leukemia
HOP-62 NSCLC = test system: HOP-62 NSCLC
HOP-92 NSCLC = test system: HOP-92 NSCLC
HT29 colon = test system: HT29 colon
IGROV1 ovarian = test system: IGROV1 ovarian
K-562 leukemia = test system: K-562 leukemia
KM12 colon = test system: KM12 colon
KM20L2 colon = test system: KM20L2 colon
LOX IMVI melanoma = test system: LOX IMVI melanoma
LXFL 529 NSCLC = test system: LXFL 529 NSCLC
M14 melanoma = test system: M14 melanoma
MALME-3M melanoma = test system: MALME-3M melanoma
MOLT-4 leukemia = test system: MOLT-4 leukemia
NCI-H23 lung = test system: NCI-H23 lung
NCI-H460 lung = test system: NCI-H460 lung
NCI-H522 lung = test system: NCI-H522 lung
OVCAR-3 ovarian = test system: OVCAR-3 ovarian
OVCAR-4 ovarian = test system: OVCAR-4 ovarian
OVCAR-5 ovarian = test system: OVCAR-5 ovarian
OVCAR-8 ovarian = test system: OVCAR-8 ovarian
RPMI-8226 leukemia = test system: RPMI-8226 leukemia
SF-268 CNS = test system: SF-268 CNS
SF-295 CNS = test system: SF-295 CNS
SF-539 CNS = test system: SF-539 CNS
SK-MEL-2 melanoma = test system: SK-MEL-2 melanoma
SK-MEL-28 melanoma = test system: SK-MEL-28 melanoma
SK-MEL-5 melanoma = test system: SK-MEL-5 melanoma
SK-OV-3 ovarian = test system: SK-OV-3 ovarian
SN12C renal = test system: SN12C renal
SNB-19 CNS = test system: SNB-19 CNS
SNB-75 CNS = test system: SNB-75 CNS
SNB-78 CNS = test system: SNB-78 CNS
SW-620 colon = test system: SW-620 colon
TK-10 renal = test system: TK-10 renal
U251 CNS = test system: U251 CNS
UACC-257 melanoma = test system: UACC-257 melanoma
UACC-62 melanoma = test system: UACC-62 melanoma
UO-31 renal = test system: UO-31 renal

## N.N.N.N.[Co+3].[N-]=[N+]=[N-].[N-]=[N+]=[N-].[N-]=[N+]=[N-]
786-0 renal
  GI50: > 100 µM
  TGI: > 100 µM
A498 renal
  GI50: > 100 µM
  TGI: > 100 µM
A549 NSCLC
  GI50: > 100 µM
  TGI: > 100 µM
ACHN renal
  GI50: 52 µM
  TGI: > 100 µM
CCRF-CEM leukemia
  GI50: 61.1 µM
  TGI: > 100 µM
COLO 205 colon
  GI50: > 100 µM
  TGI: > 100 µM
DLD-1 colon
  GI50: > 100 µM
  TGI: > 100 µM
DMS 273 small cell lung
  GI50: > 100 µM
  TGI: > 100 µM
EKVX NSCLC
  GI50: > 100 µM
  TGI: > 100 µM
HCC-2998 colon
  GI50: > 100 µM
  TGI: > 100 µM
HCT-116 colon
  GI50: 85.5 µM
  TGI: > 100 µM
HCT-15 colon
  GI50: > 100 µM
  TGI: > 100 µM
HL-60(TB) leukemia
  GI50: 61.5 µM
  TGI: > 100 µM
HOP-62 NSCLC
  GI50: > 100 µM
  TGI: > 100 µM
HOP-92 NSCLC
  GI50: 19 µM
  TGI: > 100 µM
HT29 colon
  GI50: > 100 µM
  TGI: > 100 µM
IGROV1 ovarian
  GI50: > 100 µM
  TGI: > 100 µM
K-562 leukemia
  GI50: > 100 µM
  TGI: > 100 µM
KM12 colon
  GI50: > 100 µM
  TGI: > 100 µM
KM20L2 colon
  GI50: > 100 µM
  TGI: > 100 µM
LOX IMVI melanoma
  GI50: > 100 µM
  TGI: > 100 µM
LXFL 529 NSCLC
  GI50: > 100 µM
  TGI: > 100 µM
M14 melanoma
  GI50: > 100 µM
  TGI: > 100 µM
MALME-3M melanoma
  GI50: 78.1 µM
  TGI: > 100 µM
MOLT-4 leukemia
  GI50: 36 µM
  TGI: > 100 µM
NCI-H23 lung
  GI50: > 100 µM
  TGI: > 100 µM
NCI-H460 lung
  GI50: > 100 µM
  TGI: > 100 µM
NCI-H522 lung
  GI50: 39.7 µM
  TGI: > 100 µM
OVCAR-3 ovarian
  GI50: > 100 µM
  TGI: > 100 µM
OVCAR-4 ovarian
  GI50: > 100 µM
  TGI: > 100 µM
OVCAR-5 ovarian
  GI50: > 100 µM
  TGI: > 100 µM
OVCAR-8 ovarian
  GI50: > 100 µM
  TGI: > 100 µM
RPMI-8226 leukemia
  GI50: > 100 µM
  TGI: > 100 µM
SF-268 CNS
  GI50: 47.4 µM
  TGI: > 100 µM
SF-295 CNS
  GI50: > 100 µM
  TGI: > 100 µM
SF-539 CNS
  GI50: 26.6 µM
  TGI: > 100 µM
SK-MEL-2 melanoma
  GI50: > 100 µM
  TGI: > 100 µM
SK-MEL-28 melanoma
  GI50: 47.1 µM
  TGI: > 100 µM
SK-MEL-5 melanoma
  GI50: > 100 µM
  TGI: > 100 µM
SK-OV-3 ovarian
  GI50: > 100 µM
  TGI: > 100 µM
SN12C renal
  GI50: > 100 µM
  TGI: > 100 µM
SNB-19 CNS
  GI50: > 100 µM
  TGI: > 100 µM
SNB-75 CNS
  GI50: > 100 µM
  TGI: > 100 µM
SNB-78 CNS
  GI50: > 100 µM
  TGI: > 100 µM
SW-620 colon
  GI50: > 100 µM
  TGI: > 100 µM
TK-10 renal
  GI50: > 100 µM
  TGI: > 100 µM
U251 CNS
  GI50: > 100 µM
  TGI: > 100 µM
UACC-257 melanoma
  GI50: > 100 µM
  TGI: > 100 µM
UACC-62 melanoma
  GI50: 85.2 µM
  TGI: > 100 µM
UO-31 renal
  GI50: 29.2 µM
  TGI: > 100 µM
